Converted amounts (≈) assume the structure as drawn.
Assays:
[1] = system: Mycobacterium tuberculosis variant bovis; test: Antimycobacterial activity against Mycobacterium bovis BCG assessed as reduction in microbial growth incubated for 15 days by resazurin based reduction assay; format: functional; conditions: 360 h, time 15 day
[2] = system: Mycobacterium tuberculosis variant bovis; test: Antimycobacterial activity against Mycobacterium bovis BCG ATCC 35734 assessed as inhibition of bacterial growth incubated for 5 days by broth microdilution method; format: functional, organism-based; conditions: BCG ATCC 35734, 120 h
[3] = system: Mycobacterium tuberculosis variant bovis; test: Antitubercular activity against Mycobacterium bovis BCG assessed as bacterial growth inhibition incubated for 15 days by resazurin based reduction assay; format: functional; conditions: 360 h, time 15 day

| Compound | MIC99 [1] | IC50 [2] | MIC99 [3] |
| --- | --- | --- | --- |
| N#Cc1cc(OCCOc2ccccc2)cc(-c2ccc(C(=O)O)o2)c1 | 63 µM | 12.1 µM |  |
| N#Cc1cc(-c2ccc(C(=O)O)o2)cc(C(F)(F)F)c1 |  |  | 125 µM (≈ 35.1 µg/mL) |

From ChEMBL document CHEMBL5329193, “Targeting Mycobacterium tuberculosis iron-scavenging tools: a recent update on siderophores inhibitors” (RSC Med Chem, 2023)
